“Also recorded” adds a separate entry of the source. Like-named read-outs stand apart in the source and are kept apart here.

One experiment concerns TNFSF10. Further details: species or system human.
The test system of another experiment is IFNG. Further details: species or system human.
Another experiment concerns CXCL1. Further details: species or system human.
The subject of another experiment is MIG. Further details: species or system human.
The target in a further experiment is aromatase (Homo sapiens, UniProt P11511). Conditions: in vivo; cited from earlier work.
The test system of a further experiment is CCL11. Description: Drugs that upregulate or downregulate iAge marker (Table 9). Further details: species or system human. Conditions: GENE CCL11; beneficial (lowers) or detrimental (raises) to iAge.
For another experiment, the system named is Mouse thoracic aortas. Description: Acetylcholine relaxation of mouse thoracic aortic rings on wire myograph after MIG. Conditions: increasing concentrations of recombinant mouse MIG, precontracted with U46619. Here is the method:
Mouse thoracic aortas were carefully dissected, and vessels were cut into small rings and mounted on an isometric wire myograph chambers (Danish Myo Technology) and subjected to a normalization protocol. Following normalization, the vessels were incubated with either PBS or different concentrations of recombinant mouse MIG (R&D systems, catalog number 492-MM). A concentration-dependent contraction curve was created by accumulative application of the prostaglandin agonist U46619. Subsequently, concentration-dependent relaxation curves of Acetylcholine were conducted on these vessels and percent relaxation calculated for each dose.

[1] abbreviates: GENE TNFSF10, beneficial (lowers) or detrimental (raises) to iAge.
Where [2] appears, read: GENE IFNG, beneficial (lowers) or detrimental (raises) to iAge.
The mark [3] stands for this setting: GENE CXCL1, beneficial (lowers) or detrimental (raises) to iAge.
Where [4] appears, read: GENE CXCL9 (MIG), beneficial (lowers) or detrimental (raises) to iAge.

TNFSF10, sequence (P50591 whole entry): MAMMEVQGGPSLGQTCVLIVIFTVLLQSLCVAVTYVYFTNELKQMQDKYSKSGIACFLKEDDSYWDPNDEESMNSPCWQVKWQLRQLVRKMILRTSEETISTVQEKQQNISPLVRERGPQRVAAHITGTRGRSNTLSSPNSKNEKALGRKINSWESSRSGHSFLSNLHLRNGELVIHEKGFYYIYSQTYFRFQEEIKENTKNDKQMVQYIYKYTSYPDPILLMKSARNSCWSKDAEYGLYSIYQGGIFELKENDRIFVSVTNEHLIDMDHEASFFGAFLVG
aromatase, sequence (P11511 whole entry): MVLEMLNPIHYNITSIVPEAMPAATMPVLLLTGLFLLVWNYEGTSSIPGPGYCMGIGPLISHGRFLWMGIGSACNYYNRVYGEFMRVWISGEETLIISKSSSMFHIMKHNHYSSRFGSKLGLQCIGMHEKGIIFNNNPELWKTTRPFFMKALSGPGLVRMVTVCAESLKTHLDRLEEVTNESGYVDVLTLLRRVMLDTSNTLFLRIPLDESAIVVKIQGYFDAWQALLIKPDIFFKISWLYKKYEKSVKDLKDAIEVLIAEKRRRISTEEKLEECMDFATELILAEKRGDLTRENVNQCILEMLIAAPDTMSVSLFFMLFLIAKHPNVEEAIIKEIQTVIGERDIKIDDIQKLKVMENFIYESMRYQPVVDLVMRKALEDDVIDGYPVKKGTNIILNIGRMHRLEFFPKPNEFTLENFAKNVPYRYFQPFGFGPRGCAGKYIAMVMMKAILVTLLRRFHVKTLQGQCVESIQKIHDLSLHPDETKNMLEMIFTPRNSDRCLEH

Turning to `CC(=O)Nc1ccc(O)cc1` [Acetaminophen], in the experiment on TNFSF10, the EFFECT result was “Detrimental”.

With `CC(=O)N[C@@H](CS)C(=O)O` [Acetylcysteine, reference compound], the EFFECT result in the experiment on TNFSF10 (setting [1]) is given as “Detrimental”.

As for `CC1=C(/C=C/C(C)=C\C=C\C(C)=C\C(=O)O)C(C)(C)CCC1` [Alitretinoin, reference compound], the results for the EFFECT result in the experiment on IFNG (setting [2]), with CXCL1 (setting [3]) and with TNFSF10 (setting [1]) were “Detrimental”, “Detrimental” and “Beneficial”, respectively.

On to `CC1=C(/C=C/C(C)=C/C=C/C(C)=C/C=C/C=C(C)/C=C/C=C(C)/C=C/C2=C(C)CCCC2(C)C)C(C)(C)CCC1` [Beta carotene], for which the EFFECT result in the experiment on MIG is given as “Detrimental”; with TNFSF10 it was “Beneficial”.

Regarding `CC(C)C[C@H](NC(=O)[C@H](Cc1ccccc1)NC(=O)c1cnccn1)B(O)O` [Bortezomib, reference compound], the values for the EFFECT result in the experiment on CXCL1 (setting [3]) and with TNFSF10 (setting [1]) were “Beneficial” and “Detrimental”, respectively.

In the case of `COc1cc(CNC(=O)CCCC/C=C/C(C)C)ccc1O` [Capsaicin, reference compound], the EFFECT result in the experiment on TNFSF10 (setting [1]) is given as “Beneficial”.

Take `[Cr]` [Chromium]: the EFFECT result in the experiment with TNFSF10 (setting [1]) is “Detrimental”.

As for `CN/C(=N/CCSCc1nc[nH]c1C)NC#N` [Cimetidine], the EFFECT entry with IFNG is reported as “Beneficial”.

With `N.N.[Cl][Pt][Cl]` [Cisplatin], the EFFECT entry in the experiment on TNFSF10 (setting [1]) is “Beneficial”.

On to `Nc1ccn([C@@H]2O[C@H](CO)[C@@H](O)[C@@H]2O)c(=O)n1` [Cytarabine], for which, in the experiment with TNFSF10 (setting [1]), the EFFECT result is recorded as “Beneficial”.

`Nc1ncn([C@H]2C[C@H](O)[C@@H](CO)O2)c(=O)n1` [Decitabine, 5-aza-2′-deoxycytidine, reference compound]: the EFFECT entry in the experiment on TNFSF10 (setting [1]) is reported as “Beneficial”.

As to `COc1cccc2c1C(=O)c1c(O)c3c(c(O)c1C2=O)C[C@@](O)(C(=O)CO)C[C@@H]3O[C@H]1C[C@H](N)[C@H](O)[C@H](C)O1` [Doxorubicin], the EFFECT result with TNFSF10 (setting [1]) is “Beneficial”.

With `CCCCCc1cc(O)c2c(c1)OC(C)(C)[C@@H]1CCC(C)=C[C@@H]21` [Dronabinol, reference compound], the EFFECT result with IFNG (setting [2]) is “Detrimental”.

`C=CCc1ccc(O)c(OC)c1` [Eugenol]: the EFFECT entry with CXCL1 (setting [3]) is “Beneficial”.

On to `O=c1[nH]cc(F)c(=O)[nH]1` [Fluorouracil, reference compound], for which, in the experiment on TNFSF10 (setting [1]), the EFFECT result is recorded as “Beneficial”.

For `[Gd]` [Gadolinium], in the experiment on IFNG (setting [2]), the EFFECT result was “Beneficial”.

Consider `Nc1ccn([C@@H]2O[C@H](CO)[C@@H](O)C2(F)F)c(=O)n1` [Gemcitabine], for which, in the experiment on CXCL1 (setting [3]), the EFFECT result was “Beneficial”.

For `NCCc1c[nH]cn1` [Histamine, reference compound], in the experiment with IFNG, the EFFECT result is listed as “Detrimental”.

In the case of `[Fe]` [Iron], the EFFECT entry with TNFSF10 (setting [1]) is listed as “Beneficial”.

`CC1=C(/C=C/C(C)=C/C=C/C(C)=C\C(=O)O)C(C)(C)CCC1` [Isotretinoin]: the EFFECT entry in the experiment on CXCL1 (setting [3]) is “Detrimental”; in the experiment with TNFSF10 (setting [1]), “Beneficial”.

For the molecule `N#Cc1ccc(C(c2ccc(C#N)cc2)n2cncn2)cc1` [Letrozole], the “reduction of estrogen levels” value at aromatase was 98%.

Turning to `CC#C[C@]1(O)CC[C@H]2[C@@H]3CCC4=CC(=O)CCC4=C3[C@@H](c3ccc(N(C)C)cc3)C[C@@]21C` [Mifepristone], the EFFECT entry with CXCL1 (setting [3]) is listed as “Detrimental”.

In the case of `O=O` [Oxygen], the EFFECT entry in the experiment on IFNG and in the experiment with TNFSF10 was “Beneficial” each time.

As to `Oc1cccc2cccnc12` [Oxyquinoline], in the experiment with TNFSF10, the EFFECT entry is “Beneficial”.

Turning to `CC(=O)CCCCn1c(=O)c2c(ncn2C)n(C)c1=O` [Pentoxifylline, reference compound], the EFFECT entry with TNFSF10 (setting [1]) is given as “Beneficial”.

Consider `CN1C(C(=O)Nc2ccccn2)=C(O)c2ccccc2S1(=O)=O` [Piroxicam], for which, in the experiment with CXCL1 (setting [3]), the EFFECT entry is “Detrimental”.

Regarding `C[C@]12C=CC(=O)C=C1CC[C@@H]1[C@@H]2[C@@H](O)C[C@@]2(C)[C@H]1CC[C@]2(O)C(=O)CO` [Prednisolone], in the experiment on CXCL1, the EFFECT result is “Detrimental”.

As to `CC(=O)[C@H]1CC[C@H]2[C@@H]3CCC4=CC(=O)CC[C@]4(C)[C@H]3CC[C@]12C` [Progesterone], the EFFECT result in the experiment on MIG (setting [4]), with CXCL1 (setting [3]) and in the experiment on TNFSF10 (setting [1]) was “Detrimental” each time.

Turning to `Oc1ccc(/C=C/c2cc(O)cc(O)c2)cc1` [Resveratrol, 3,5,4′-trihydroxy-trans-stilbene], the EFFECT entry in the experiment with IFNG (setting [2]) is “Detrimental”; in the experiment on CXCL1 (setting [3]), “Detrimental”; in the experiment on CCL11, “Beneficial”.

Take `NC(=O)c1ncn([C@@H]2O[C@H](CO)[C@@H](O)[C@H]2O)n1` [Ribavirin, reference compound]: the EFFECT entry with IFNG (setting [2]) was “Detrimental”.

`[Se]` [Selenium]: the EFFECT result was “Beneficial” in the experiment with MIG (setting [4]), “Beneficial” with CXCL1 (setting [3]) and “Detrimental” in the experiment on TNFSF10 (setting [1]).

For the molecule `[Ag]` [Silver], in the experiment on TNFSF10 (setting [1]), the EFFECT result is “Detrimental”.

In the case of `O=C([O-])CC([S-])C(=O)[O-].[Au+].[Na+].[Na+]` (stereo not drawn) [Sodium aurothiomalate], the EFFECT entry in the experiment with CXCL1 (setting [3]) was “Detrimental”.

As to `O.O.O.O.O.O.O.O.O.O=C([O-])[C@@H]1[O][Sb]2([O-])([O][Sb]34([OH])[O][C@H]([C@H](O)CO)[C@H]([O]3)[C@H](C(=O)[O-])[O]4)[O][C@H]([C@H](O)CO)[C@@H]1[O]2.[Na+].[Na+].[Na+]` [Sodium stibogluconate], the EFFECT result in the experiment with IFNG (setting [2]) is “Detrimental”.

Take `C=CC[C@@H]1/C=C(\C)C[C@H](C)C[C@H](OC)[C@H]2O[C@@](O)(C(=O)C(=O)N3CCCC[C@H]3C(=O)O[C@H](/C(C)=C/[C@@H]3CC[C@@H](O)[C@H](OC)C3)[C@H](C)[C@@H](O)CC1=O)[C@H](C)C[C@@H]2OC` [Tacrolimus]: in the experiment with CCL11, the EFFECT entry was “Beneficial”.

Take `Cn1c(=O)c2[nH]cnc2n(C)c1=O` [Theophylline]: the EFFECT entry with IFNG is reported as “Detrimental”.

Take `CC1=C(/C=C/C(C)=C/C=C/C(C)=C/C(=O)O)C(C)(C)CCC1` [Tretinoin, reference compound]: the EFFECT entry in the experiment with IFNG (setting [2]) was “Detrimental”; with CXCL1 (setting [3]) it was “Detrimental”; with TNFSF10 (setting [1]), “Beneficial”.

`CC[C@]1(O)C[C@H]2CN(CCc3c([nH]c4ccccc34)[C@@](C(=O)OC)(c3cc4c(cc3OC)N(C=O)[C@H]3[C@@](O)(C(=O)OC)[C@H](OC(C)=O)[C@]5(CC)C=CCN6CC[C@]43[C@@H]65)C2)C1` [Vincristine]: the EFFECT entry with MIG (setting [4]) is “Detrimental”; in the experiment on IFNG (setting [2]), “Beneficial”; with TNFSF10 (setting [1]), “Beneficial”.

On to `O=C(CCCCCCC(=O)Nc1ccccc1)NO` [Vorinostat, reference compound], for which, in the experiment on TNFSF10 (setting [1]), the EFFECT result is “Beneficial”.

For `O=S(=O)([O-])[O-].[Zn+2]` [Zinc sulfate], in the experiment on IFNG, the EFFECT result is “Beneficial”.

`[Zn]` [Zinc]: the EFFECT entry is reported as “Beneficial” with IFNG (setting [2]) and “Detrimental” with CCL11.

Regarding `CN(Cc1cnc2nc(N)nc(N)c2n1)c1ccc(C(=O)N[C@@H](CCC(=O)O)C(=O)O)cc1` [methotrexate, Methotrexate, reference compound], the EFFECT entry in the experiment with IFNG (setting [2]) is recorded as “Detrimental”; with CXCL1 (setting [3]), “Detrimental; also recorded: Beneficial”; with TNFSF10 (setting [1]), “Beneficial”; in the experiment on CCL11, “Beneficial”.

With Arsenic trioxide, the EFFECT entry in the experiment on MIG (setting [4]) is “Beneficial”; in the experiment on TNFSF10 (setting [1]), “Detrimental; also recorded: Beneficial”.

As to Vitamin E, the EFFECT entry with TNFSF10 (setting [1]) is on record as “Detrimental”.

B1: MIG: recombinant mouse MIG (R&D systems, catalog number 492-MM) (protein, UniProt Q07325 23-125, looked up)
C-X-C motif chemokine 9: TPVVRKGRCSCISTNQGTIHLQSLKDLKQFAPSPSCEKIEIIATLKNGVQTCLNPDSADVKELIKKWEKQVSQKKKQKNGKKHQKKKVLKVRKSQRSRQKKTT
B1: the “effect on vasorelaxation to Acetylcholine” value in the experiment on Mouse thoracic aortas was “impairs vascular function”.
